Columns and labels:
S. aureus DSM 20231 = assay: fitness (endpoint OD595 vs no drug) (fraction); higher = more growth
Summary of the method: (§1)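 Bacterial fitness was scored as optical density at the stationary-phase transition relative to the robust mean of no-drug control wells. Scores are capped at 1. The growth data were OD595 readings every 30 min for 14 h at 37 °C, background-subtracted against the first reading, from 384-well plates inoculated at OD595 0.01 in TSB, LB Lennox or CY.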

S. pneumoniae D39V = assay: as above
Summary of the method: as §1
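Also: OD595 on entry to stationary phase over no-drug wells; at most 1.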

CC(=O)Oc1ccccc1C(=O)O [Acetylsalicylic acid] + CN1C2=CC=CC=C2N=C3C1=CC=CC3=O [Pyocyanin]
fitness
Conditions	first compound 250 µg/mL	first compound 500 µg/mL	first compound 1000 µg/mL
S. aureus DSM 20231, partner 1.25 µg/mL	0.826	0.679	0.525
S. aureus DSM 20231, partner 2.5 µg/mL	0.751	0.607	0.437
S. aureus DSM 20231, partner 5 µg/mL	0.611	0.551	0.268
S. pneumoniae D39V, partner 0.325 µg/mL	≥ 1	0.995	0.917
S. pneumoniae D39V, partner 0.65 µg/mL	1	0.98	0.681
S. pneumoniae D39V, partner 1.3 µg/mL	0.863	0.722	0.467

CC(=O)Oc1ccccc1C(=O)O [Acetylsalicylic acid] + CCC[C@@H]1C[C@@H](C(=O)N[C@@H]([C@H]2O[C@H](SC)[C@H](O)[C@@H](O)[C@H]2O)[C@@H](C)O)N(C)C1 [Lincomycin]
fitness
Conditions	partner 0.1 µg/mL	partner 0.2 µg/mL	partner 0.215 µg/mL	partner 0.4 µg/mL	partner 0.43 µg/mL	partner 0.8 µg/mL	partner 0.86 µg/mL
S. aureus DSM 20231, first compound 250 µg/mL	0.863	0.84	–	–	–	–	–
S. aureus DSM 20231, first compound 500 µg/mL	0.81	0.795	–	–	–	–	–
S. aureus DSM 20231, first compound 1000 µg/mL	–	–	–	0.204	–	–	–
S. pneumoniae D39V, first compound 250 µg/mL	–	0.528	0.866	0.389	0.748	0.116	0.377
S. pneumoniae D39V, first compound 500 µg/mL	–	0.455	0.824	0.368	0.749	0.0711	0.389
S. pneumoniae D39V, first compound 1000 µg/mL	–	0.344	0.841	0.213	0.746	0.0378	0.35

CN(C)[C@@H]1C(O)=C(C(N)=O)C(=O)[C@@]2(O)C(O)=C3C(=O)c4c(O)ccc(Cl)c4[C@@](C)(O)[C@H]3C[C@@H]12 [Chlortetracycline] + CO/N=C(\C(=O)N[C@@H]1C(=O)N2C(C(=O)[O-])=C(C[N+]3(C)CCCC3)CS[C@H]12)c1csc(N)n1 [Cefepime]
S. aureus DSM 20231, first compound 0.006 µg/mL, one replicate
Conditions	fitness
partner 0.125 µg/mL	0.792
partner 0.25 µg/mL	0.774
partner 0.5 µg/mL	0.722

Conditions	fitness
S. aureus DSM 20231, first compound 0.012 µg/mL, partner 0.125 µg/mL	0.63
S. aureus DSM 20231, first compound 0.012 µg/mL, partner 0.25 µg/mL	0.617
S. aureus DSM 20231, first compound 0.012 µg/mL, partner 0.5 µg/mL	0.636
S. aureus DSM 20231, first compound 0.024 µg/mL, partner 0.125 µg/mL	0.388
S. aureus DSM 20231, first compound 0.048 µg/mL, partner 0.125 µg/mL	0.274
S. aureus DSM 20231, first compound 0.048 µg/mL, partner 0.25 µg/mL	0.304
S. aureus DSM 20231, first compound 0.048 µg/mL, partner 0.5 µg/mL	0.274
S. pneumoniae D39V, first compound 0.012 µg/mL, partner 0.007 µg/mL	0.964
S. pneumoniae D39V, first compound 0.012 µg/mL, partner 0.014 µg/mL	0.949
S. pneumoniae D39V, first compound 0.012 µg/mL, partner 0.028 µg/mL	0.836
S. pneumoniae D39V, first compound 0.024 µg/mL, partner 0.007 µg/mL	0.936
S. pneumoniae D39V, first compound 0.024 µg/mL, partner 0.014 µg/mL	0.86
S. pneumoniae D39V, first compound 0.024 µg/mL, partner 0.028 µg/mL	0.811
S. pneumoniae D39V, first compound 0.048 µg/mL, partner 0.007 µg/mL	0.659
S. pneumoniae D39V, first compound 0.048 µg/mL, partner 0.014 µg/mL	0.661
S. pneumoniae D39V, first compound 0.048 µg/mL, partner 0.028 µg/mL	0.693
S. pneumoniae D39V, first compound 0.375 µg/mL, partner 0.0078 µg/mL	0.0772
S. pneumoniae D39V, first compound 0.375 µg/mL, partner 0.0155 µg/mL	0.049
S. pneumoniae D39V, first compound 0.375 µg/mL, partner 0.031 µg/mL	0.0797
S. pneumoniae D39V, first compound 0.75 µg/mL, partner 0.0078 µg/mL	0.0925
S. pneumoniae D39V, first compound 0.75 µg/mL, partner 0.0155 µg/mL	0.0687
S. pneumoniae D39V, first compound 0.75 µg/mL, partner 0.031 µg/mL	0.0749
S. pneumoniae D39V, first compound 1.5 µg/mL, partner 0.0078 µg/mL	0.0695
S. pneumoniae D39V, first compound 1.5 µg/mL, partner 0.0155 µg/mL	0.0769
S. pneumoniae D39V, first compound 1.5 µg/mL, partner 0.031 µg/mL	0.0751

CC(=O)Oc1ccccc1C(=O)O [Acetylsalicylic acid] + CN[C@H](CC(C)C)C(=O)N[C@H]1C(=O)N[C@@H](CC(N)=O)C(=O)N[C@H]2C(=O)N[C@H]3C(=O)N[C@H](C(=O)N[C@H](C(=O)O)c4cc(O)cc(O)c4-c4cc3ccc4O)[C@H](O)c3ccc(c(Cl)c3)Oc3cc2cc(c3O[C@@H]2O[C@H](CO)[C@@H](O)[C@H](O)[C@H]2O[C@H]2C[C@](C)(N)[C@H](O)[C@H](C)O2)Oc2ccc(cc2Cl)[C@H]1O [Vancomycin]
fitness
Conditions	first compound 250 µg/mL	first compound 500 µg/mL	first compound 1000 µg/mL
S. aureus DSM 20231, partner 0.1875 µg/mL	0.871	0.79	0.592
S. aureus DSM 20231, partner 0.375 µg/mL	0.953	–	0.562
S. aureus DSM 20231, partner 0.75 µg/mL	0.947	–	–
S. pneumoniae D39V, partner 0.03125 µg/mL	0.956	0.934	0.839
S. pneumoniae D39V, partner 0.0625 µg/mL	0.894	0.885	0.826
S. pneumoniae D39V, partner 0.125 µg/mL	0.927	0.917	0.84
S. pneumoniae D39V, partner 0.25 µg/mL	0.984	0.961	0.83
S. pneumoniae D39V, partner 0.5 µg/mL	0.105	0.0715	0.0849

CC(=O)Oc1ccccc1C(=O)O [Acetylsalicylic acid] + CC(=O)NC[C@H]1CN(c2ccc(N3CCOCC3)c(F)c2)C(=O)O1 [Linezolid]
fitness
Conditions	first compound 250 µg/mL	first compound 500 µg/mL	first compound 1000 µg/mL
S. aureus DSM 20231, partner 0.125 µg/mL	0.868	–	0.509
S. aureus DSM 20231, partner 0.25 µg/mL	0.582	0.486	0.275
S. aureus DSM 20231, partner 0.5 µg/mL	0.203	0.159	0.117
S. pneumoniae D39V, partner 0.105 µg/mL	0.879	0.866	0.776
S. pneumoniae D39V, partner 0.2 µg/mL	0.675	0.623	0.463
S. pneumoniae D39V, partner 0.21 µg/mL	0.756	0.773	0.712
S. pneumoniae D39V, partner 0.4 µg/mL	0.598	0.582	0.439
S. pneumoniae D39V, partner 0.42 µg/mL	0.573	0.561	0.442
S. pneumoniae D39V, partner 0.8 µg/mL	0.252	0.24	0.208

S. aureus DSM 20231, partner 1 µg/mL, one replicate
Conditions	fitness
first compound 250 µg/mL	0.0592
first compound 500 µg/mL	0.0468
first compound 1000 µg/mL	0.0354

CC(=O)Oc1ccccc1C(=O)O [Acetylsalicylic acid] + Cc1ncc([N+](=O)[O-])n1CCO [Metronidazole]
fitness
Conditions	partner 0.625 µg/mL	partner 1.073 µg/mL	partner 1.25 µg/mL	partner 2.145 µg/mL	partner 2.5 µg/mL	partner 4.29 µg/mL	partner 5 µg/mL
S. aureus DSM 20231, first compound 250 µg/mL	0.939	–	≥ 1	–	≥ 1	–	–
S. aureus DSM 20231, first compound 500 µg/mL	0.778	–	0.791	–	0.759	–	–
S. pneumoniae D39V, first compound 250 µg/mL	–	0.982	0.971	0.959	0.989	0.937	0.972
S. pneumoniae D39V, first compound 500 µg/mL	–	0.979	0.975	0.965	1	0.975	0.965
S. pneumoniae D39V, first compound 1000 µg/mL	–	0.946	0.906	0.936	0.914	0.932	0.915

CC(=O)Oc1ccccc1C(=O)O [Acetylsalicylic acid] + Cc1cc(NS(=O)(=O)c2ccc(N)cc2)no1 [Sulfamethoxazol]
fitness
Conditions	first compound 250 µg/mL	first compound 500 µg/mL	first compound 1000 µg/mL
S. aureus DSM 20231, partner 1 µg/mL	0.862	0.683	0.53
S. aureus DSM 20231, partner 2 µg/mL	0.855	–	0.522
S. aureus DSM 20231, partner 4 µg/mL	0.844	–	–
S. pneumoniae D39V, partner 1 µg/mL	0.941	0.905	0.78
S. pneumoniae D39V, partner 2 µg/mL	0.946	0.926	0.811
S. pneumoniae D39V, partner 4 µg/mL	0.909	0.872	0.842

From the supplement of paper PMC10627819
